Source: US10463685B2, “Telomerase mediated telomere altering compounds” (The Board of Regents of The University of Texas System, priority 2013, dated 2019)
Where two headings read alike, the source gives them in different places. [tNP] = thio-phosphoramidate internucleoside linkage; {Palm} = palmitoyl group

What was measured:
[1] = assay type: in vivo
Experimental: Six WT mice were treated with 1.67 mg of 6-thio-dG/kg of body weight daily. Six WT mice were treated with 1.67 mg of 6-thio-G/kg of body weight daily. Six WT mice were treated with 5 mg of 6-thio-dG/kg of body weight daily. Six WT mice were treated with 5 mg of 6-thio-G/kg of body weight daily. The mice were given the appropriate dosage and weighed daily for 25 days. […] In comparison, the mice receiving 6-thio-G at the same dose lost between 1-2 grams (6-12% of initial weight) over the course of the 25 day treatment. […] In comparison, the mice receiving 6-thio-G at the same dose loss around 2 grams and all mice died by the 15th day of treatment.

[2] = test system: A549 human lung cancer cells; assay: Tumor growth in xenograft animal model; assay type: in vivo, mice; conditions: 2.5 mg/kg every day
Experimental: Doses of 2.5 mg/kg of 6-thio-dG and 2.5 mg/kg of 6-thio-G were injected every day into mice after tumor implantation and providing time for tumor initiation. DMSO injections were used for the control. The volume of the tumor was measured.

BJ fibroblast cells = assay: Telomere length assay (TRF), long-term culture; assay type: cell-based, human; conditions: BJ fibroblasts, 10 weeks
Experimental: (§1) For long-term cellular experiments, HCT116 (1,000 cells/cm^2) and BJ (10,000 cells/cm^2) cells were fed with 6-thio-dG (1, 3, 10 μM) containing medium every three days. The cells were counted and replated every week for 10-16 weeks. Additionally, HCT116 cells (1,000 cells/cm^2) were fed with 6-thio-G (1, 3, 10 μM) every three days and each week cells were counted, collected for TRF (Telomere Restriction Fragment) analysis and replated. HCT116 cells, following treatment with 10 μM 6-thio-dG for 12 weeks, were then treated with a combination of 10 μM 6-thio-dG and […] GRN163L for 2-4 weeks.
1×10^6 cells were collected and washed with PBS. DNA was isolated using the manufacturer's instructions (Qiagen, Valencia, Calif.). 2.5 μg DNA was digested with six different restriction enzymes (HhaI, HinfI, MspI, HaeIII, RsaI, AluI) (New England Bio, Ipswich, Mass.) and incubated at 37° C. overnight. […] Gels were exposed to a PhosphorImager screen overnight and analyzed using a Typhoon PhosphorImager scanner system (Molecular Dynamics).
To determine if 6-thio-dG and 6-thio-G causes progressive telomere shortening, telomere lengths of treated cells were evaluated by TRF assay. […]

HCT116 cells [3] = assay: Telomere length assay (TRF), long-term culture; assay type: cell-based, human
Experimental: as §1
1×10^6 cells were collected and washed with PBS. DNA was isolated using the manufacturer's instructions (Qiagen, Valencia, Calif.). 2.5 μg DNA was digested with six different restriction enzymes (HhaI, HinfI, MspI, HaeIII, RsaI, AluI) (New England Bio, Ipswich, Mass.) and incubated at 37° C. overnight. Digested DNA was separated on a 0.7% agarose gel overnight at 70 V. The terminal restriction fragment (TRF) gel was denatured for 20 min in denaturating solution (0.5 M NaOH, 1.5 M NaCl, pH 13.2) and dried on Whatman 3 MM paper under vacuum for 3 hours at 56° C. The gel was neutralized for 15 minutes in neutralization buffer (1.5 M NaCl, 0.5 M Tris-HCl, pH 8.0) and then probed with a radiolabeled telomeric probe (C-rich) for 16 hours at 42° C. in 5×SSC buffer, 5×Denhardt's solution, 10 mmol/L Na2HPO4, and 1 mmol/L Na2H2P2O7. The gel was washed once with 2×SSC, 0.1% SDS, twice with 0.5×SSC, 0.1% SDS and then twice with 0.5×SSC, 1% SDS at room temperature for 15 min. Gels were exposed to a PhosphorImager screen overnight and analyzed using a Typhoon PhosphorImager scanner system (Molecular Dynamics).
To determine if 6-thio-dG and 6-thio-G causes progressive telomere shortening, telomere lengths of treated cells were evaluated by TRF assay. Cancer HCT116 and normal BJ fibroblast cells were treated with 1 μM or 10 μM of 6-thio-dG for 1-12 weeks every 3 days. In addition, HCT116 cells were also treated with 1 μM or 10 μM 6-thio-G for 1-10 weeks every 3 days to determine if there is any effect of this molecule on telomeric length maintenance. The control was untreated. Each week samples were collected for TRF analysis at 1×10^6 cells/sample at 1, 5, and 12 weeks for cells treated with 6-thio-dG and 1, 5, and 10 for cells treated with 6-thio-G.
HCT116 cells were treated with either 10 μM 6-thio-dG alone for 12-16 weeks, or with 3 μM GRN163L alone for 11 weeks. Then, these long term 6-thio-dG treated surviving cells were cultured with a combination of 6-thio-dG (10 μM) and/or GRN163L (3 μM) for 2-4 additional weeks. […] Specifically, the HCT116 cells were treated beyond the 12 weeks of 6-thio-dG treatment with either GRN163L only or GRN163L+6-thio-dG, for an additional 2 and 4 weeks to determine if there is an effect on telomere length.

Toxicity testing in rats = assay type: in vivo; conditions: for mortality: rats
Experimental: Six rats were treated with 15 mg of 6-thio-dG/kg of body weight every two days. […] Another 5 rats were treated with 50 mg of 6-thio-dG/kg of body weight every other day. All rats died after 12 days.

HCT116 cells [4] = assay: TIF assay, gamma-H2AX and TRF2 immuno-staining; assay type: cell-based, human; conditions: HCT116, 3 μM
Experimental: Briefly, HCT116 cells were plated in 4-well chamber slides and after the cells attached to the surface, either 3 μM 6-thio-dG or 3 μM 6-thio-G was added to the medium at different time points (0, 30 min, 12 h, 24 h, 48 h, 72 h). […] TIFs were quantified using Imaris software.
Cancer HCT116 cells were seeded in chamber slides. Following cell attachment, 6-thio-dG (3 μM) and 6-thio-G (3 μM) were added to fresh medium at various time points (0, 30 min, 2 h, 12 h, 24 h, 48 h, 72 h). To test if 6-thio-dG and 6-thio-G cause telomere dysfunction in cancer cells, TIF analysis was conducted. […] 6-thio-dG treatment causes a 2.8-fold increase in telomeric DNA damage as compared to 6-thio-G after 72 h (FIG. 4).

HCT116 cells [5] = assay: Cell count and morphology after one week of treatment; assay type: cell-based, human; conditions: 3 μM, twice during one week
Text: HCT116 represents a human colon cancer cells, A549 models human lung epithelial cancer cells, H2882 models human lung epithelial cancer cells, HCC2429 models human lung epithelial cancer cells, HCC827 models human lung epithelial cancer cells, HCC15 models human lung epithelial cancer cells, H2087 models human lung epithelial cancer cells, HCC4017 models human lung epithelial cancer cells, HCC515 models human lung epithelial cancer cells, H2009 models human lung epithelial cancer cells, BJ-hTERT cells model telomerase expressing normal human fibroblast cells, and BJ human fibroblasts (telomerase silent) were grown in a Media X (Hyclone, Logan, Utah) supplemented with 10% cosmic calf serum (Hyclone).
Cancer HCT116 and normal BJ fibroblast cells were treated with 6-thio-dG (3 μM) and 6-thio-G (3 μM) twice during one week. Following one week of the treatment, cell morphology was monitored, and then the cells were collected and counted.

Compound | mortality ([1]; WT mice, 5 mg/kg daily, by the 15th day of treatment) | weight lost ([1]; mouse, in vivo, 5 mg/kg) | histology of the residual tumors [2] | telomere shortening (TRF) compared to untreated control (BJ fibroblast cells) | telomere length on continued treatment (HCT116 cells [3]; HCT116, 10 μM, 12 weeks versus 16 weeks) | telomere shortening (TRF) (HCT116 cells [3]; HCT116, 1 or 10 μM every 3 days, one week and five weeks) | telomere length after return to medium without drug (HCT116 cells [3]; HCT116, 12 weeks 6-thio-dG, then no drug for 2-4 weeks) | rate of tumor growth (tumor volume) compared to the control and 6-thio-G [2] | signs of impaired function in remaining animals (Toxicity testing in rats; rat, in vivo, 15 mg/kg) | mortality (Toxicity testing in rats; 15 mg/kg every two days, after 6 injections, six rats) | mortality (Toxicity testing in rats; 50 mg/kg every other day, after 12 days, 5 rats) | genomic DNA damage compared to 6-thio-G (HCT116 cells [4]) | cell count / cell death (HCT116 cells [5]) | telomere shortening (TRF) compared to the control (HCT116 cells [3]; HCT116, 3 μM alone, after 11 weeks) | telomere shortening compared with cells cultured with 6-thio-dG for 12, 14 and 16 weeks (HCT116 cells [3]; HCT116, after 12 weeks of 10 μM 6-thio-dG, additional 2 and 4 weeks of treatment)
Nc1nc2nc[nH]c2c(=S)[nH]1 [6-thio-G, 6-thioguanine, reference compound] | all mice died | around 2 grams | mostly “healthy” growing cancerous cells | did not show enhanced telomere shortening |  |  |  |  |  |  |  |  |  |  | 
Nc1nc2c(ncn2[C@H]2C[C@H](O)[C@@H](CO)O2)c(=S)[nH]1 [6-thio-dG, 6-thio-deoxyguanosine] |  |  | mostly fibrotic and often associated with apoptotic and inflammatory cells | did not show enhanced telomere shortening | stabilized telomeres | telomere shortening was detectable | remained about the same | rate of tumor growth was less | no signs of impaired function | One rat died | All rats died | overall increase in genomic DNA damage | death of the vast majority of HCT116 cells |  | 
GRN163L: 13-mer thio-phophoramidate oligonucleotide 5′-TAGGGTTAGACAA-3′ with polmitoyl group at the 5′-end; direct competitive inhibitor of telomerase (all [tNP], 5' {Palm}, sugars by position and methylation of C not given here) [reference compound] |  |  |  |  |  |  |  |  |  |  |  |  |  | did not show any significant telomere shortening | increased telomere shortening
